Series [1] deals with LNCaP cells. Description: LNCaP cell cycle and apoptosis, flow cytometry with propidium iodide. It is filed as cell-based, human. Particulars: 100 nM. How it is done:
(§1) Established methods were used to test the activity of IGF-IR antisense oligonucleotide on LNCaP and PC-3 cell growth (crystal violet assay) and apoptosis (FACS). Dose- and sequence-specific suppression of IGF-IR mRNA and protein expression in ATL1101-treated LNCaP and PC3 PC cell lines in vitro were observed by QT-PCR and western blotting. Effects of the IGF-IR antisense oligonucleotide on various putative targets, including IGF-IR and downstream targets were evaluated using western blotting.
The Effect of IGF-IR silencing with IGF-IR antisense oligonucleotide (ATL1101) on LNCaP and PC3 cell apoptosis and cell cycle is shown in FIGS. 4A(i)-(ii), 4B, 4C(i)-(ii), and Table 2. Cells were transfected with indicated concentrations of ATL1101, control oligodeoxynucleotide or oligofectamine as in FIGS. 1A(i)-1B(ii). Two days after treatment, cell cycle analysis was determined by flow cytometry using propidium iodide staining. […] In FIGS. 4C(i)-(ii), LNCaP (FIG. 4C (i)) or PC-3 (FIG. 4C (ii)) cells were transfected with indicated concentration of ATL1101 or control oligodeoxynucleotide (ISIS 306064) for two days. Cells were then cultured in FBS media for one day and in serum-free media for one day. Whole cell lysates (30 μg) were subjected to SDS-PAGE and immunoblotted to assess Cyclin D1, Cyclin E, p-RB, total Rb, and p27 protein levels. Oligo, oligofectamine treated cells only.
For orientation: Flow cytometry measures light scatter and fluorescence of single cells or particles in a stream.

Series [2] relates to insulin receptor IR-A, IR-B, IR-β protein. Briefly: Insulin receptor transcripts and protein in PC3 Ptx-R cells. It is filed as cell-based, human. The text has this: (§2) The PC3 Ptx-R cells retain sensitivity to ATL1101-induced IGF-IR down regulation at the mRNA and protein level as shown in FIGS. 11A-C. […] ATL1101 and the control oligodeoxynucleotide ISIS 306064 had no effect on either of the alternative spliced isoform transcripts of the insulin receptor, IR-A, IR-B or IR-β protein or vinculin protein levels.

The test system of a further series is IGF-IR mRNA. Description: IGF-IR mRNA expression in transfected LNCaP and PC-3 cells, quantitative RT-PCR. The series is classed as cell-based, human. Particulars: one day after treatment. How it is done:
as §1
FIGS. 1A(i)-1A(ii) show the sequence-specific and dose-dependent suppression of IGF-IR mRNA expression levels by ATL1101 in LNCaP (FIG. 1A (i)) and PC-3 (FIG. 1A (ii)) cells. […] One day after treatment, total RNA was extracted, and IGF-IR mRNA expression was analyzed by quantitative RT-PCR. IGF-IR mRNA levels were normalized to levels of GAPDH mRNA and expressed here as mean±SE. ***, p<0.001 differ from control (oligofectamine only) by Student's t test. “Control” cells were treated with oligofectamine only. In LNCaP cells, IGF-IR expression was >70% suppressed by 10 nM ATL1101 and >90% at 200 nM ATL1101. In PC3 cells, IGF-IR expression was suppressed ˜40% at 10 nM ATL1101, >50% at 50 nM ATL1101 and ˜80% at 200 nM. Control oligodeoxynucleotide (ISIS 306064) did suppress IGF-IR mRNA expression but by less than 25% at maximal doses tested

A further series deals with IGF-IRβ subunit protein. Description: IGF-IRβ subunit protein in PC3 Ptx-R cells. It is filed as cell-based, human. Particulars: 10 to 200 nM, compared to oligofectamine transfection reagent.
Text: as §2

Another series concerns Ki67. Briefly: Ki67 immunohistochemistry in psoriatic skin biopsies after topical treatment. The series is classed as in vivo. Particulars: topically applied. The protocol: The present inventors assessed proliferation by Ki67 labeling in paraffin wax-embedded, formalin-fixed, 3 mm diameter, full-thickness psoriatic skin biopsies at the conclusion of the treatment phase of topically applied ATL1101. The tissue was analyzed to assess the effect of the antisense treatments on Ki67 expression using immunohistochemical analysis.

The subject of another series is PC3 cells. Briefly: PC3 cell viability, crystal violet assay. The series is classed as cell-based, human. Particulars: FBS media, achieved by 100 nM, three days after treatment. How it is done:
as §1
(§3) Cells were transfected with indicated concentrations of ATL1101, control oligodeoxynucleotides or oligofectamine as in FIGS. 1A(i)-1A(ii). Three days after treatment, cell viability was determined by crystal violet assay. Viable cell density was normalized to that of cells treated with oligofectamine. Points, means of triplicate analysis; bars, SE. *, p<0.05 differs from control oligodeoxynucleotide treatment group. **, p<0.01 differs from control oligodeoxynucleotide treatment group by Student's t test.

Series [3] has as its system LNCaP cells. Description: LNCaP cell viability, crystal violet assay. The series is classed as cell-based, human. How it is done: as §1, §3
Series [4] concerns IGF-IRβ, p-AKT, p-ERK1/2, cleaved PARP. Description: Intracellular signaling in LNCaP and PC3 cells, immunoblot. The series is classed as cell-based, human. Particulars: 100 nM. How it is done: The suppression of intracellular signaling in IGF-IR antisense oligonucleotide-treated LNCaP (FIG. 3A) and PC3 (FIG. 3B) in vitro is shown in FIGS. 3A-3B. LNCaP or PC3 cells were transfected with 100 nM ATL1101 or control oligodeoxynucleotide (ISIS 306064) for two days. Cells were then cultured in FBS media for one day and in serum-free media for one day. Whole cell lysates (30 μg) were subjected to SDS-PAGE and immunoblotted to assess IGF-IRβ, p-AKT, total AKT, p-ERK1/2, total ERK1/2, cleaved PARP, and vinculin protein levels. Oligo, oligofectamine treated cells only.
On the technique in general: Immunoblotting shows a protein as a band on a membrane.

Marks after values point to notes of the source that are not given here.

Turning to “cgaaggaaacaatactccga (CGAAGGAAACAATACTCCGA; 2'-MOE modified, pattern not given here) [ISIS 175317, 2′-MOE-modified IGF-IR antisense oligonucleotide, also known as ATL1101]”, the “% of total cells, G0/G1” value in the series on LNCaP cells [1] (CSS condition) was found to be 13.3%; in the series with LNCaP cells [1] (FBS condition), 32.8%. In addition, the “% of total cells, G2/M” value in the series on LNCaP cells [1] (CSS condition) worked out at 1.2%; with LNCaP cells [1] (FBS condition) it was 2.8%. Besides, the “% of total cells, S” value in the series with LNCaP cells [1] (CSS condition) is 1.2%; in the series on LNCaP cells [1] (FBS condition) it was 3.4%. The “% of total cells, Sub G0/G1” value with LNCaP cells [1] (CSS condition) is listed as 84.3%; in the series on LNCaP cells [1] (FBS condition, two days after treatment), 61%. Further, the figures for the “subG0/G1 + G0/G1:S + G2/M” value in the series with LNCaP cells [1] (CSS condition) and in the series with LNCaP cells [1] (FBS condition) were 40.7*** and 15.1**, respectively. The “insulin receptor IR-A, IR-B transcripts or IR-β protein levels” value in series [2] is recorded as “no effect”. Moreover, the “suppression of IGF-IR mRNA expression” value is reported as greater than 70% in the series on IGF-IR mRNA (LNCaP cells, 10 nM); greater than 90% in the series on IGF-IR mRNA (LNCaP cells, 200 nM); roughly 40% with IGF-IR mRNA (PC3 cells, 10 nM); greater than 50% in the series on IGF-IR mRNA (PC3 cells, 50 nM); roughly 80% in the series on IGF-IR mRNA (PC3 cells, 200 nM). In addition, the “IGF-IRβ subunit protein levels” value in the series on IGF-IRβ subunit protein was “specifically reduced”. The “Ki67 by length (mm) and area (mm squared) vs. mismatch control” value in the series on Ki67 is listed as “Statistically significant reduction”. The “maximum reduction of cell viability relative to control” value was roughly 60% in the series on PC3 cells and roughly 60% in the series on LNCaP cells [3] (FBS media, achieved by 100 nM, three days after treatment). Further, the “suppression of cell viability” value in the series on LNCaP cells [3] (androgen-deprived conditions (CSS), 25 nM) came out at 60%. Moreover, the IGF-IR expression entry in series [4] is given as “undetectable”. Further, in series [4], the “activation of AKT and ERK1/2” value is given as “suppressed”. In series [4], the “cleaved PARP production” value is listed as “increased”.

These data come from patent publication US9084770B2, “Modulation of insulin like growth factor I receptor expression in cancer” (Antisense Therapeutics, Ltd., priority 2008, dated 2015).
